Source: PMC11134387, “Cancer-Stem-Cell Phenotype-Guided Discovery of a Microbiota-Inspired Synthetic Compound Targeting NPM1 for Leukemia” (JACS Au, 2024)
Entries after “also recorded” stand apart in the source; their conditions may differ.

How the values were obtained:
Format in all cases: cell-based
[1] = system: human renal proximal tubule epithelial cells (hRPT Epi Cells); assay: Dose-response viability in renal proximal tubule epithelial cells; conditions: dose-response viability assay; listed as UCM-13369
Description: Scale bar: 100 μm. (E ) Dose-response curve of UCM-13369 in human renal proximal

MOLM13 (NPM1 WT) = assay: Cell viability dose-response in AML cell line (NPM1 WT); conditions: Homo sapiens, MOLM-13; MOLM13, 48 h
Description: One of the most paradigmatic diseases with critical involvement of CSCs is AML. Among the AML stem cell population, CD34+/CD38- are the only ones capable of inducing leukemia in vivo.[27] […] We focused on proteins that disappeared completely after treatment with the compound and whose concentration could be quantified in untreated samples. According to this profile, 340 proteins, including targets related with stemness and cancer, were identified (see Supplementary Excel file). Among them, nucleophosmin 1 (NPM1) especially attracted our attention, as it is one of the most common mutated proteins in AML.[28] To support that the inhibitory capacity of UCM-13369 observed in CSC cells (see Table S1) is mediated by NPM1, the compound was tested on OCI-AML3 and MOLM13 cell lines, as in vitro AML models bearing mutant (NPM1 C+) and wild-type (WT) protein, respectively.
The test compound was diluted in PBS.

[2] = system: primary HSCs from healthy donors; assay: CD34+ liquid HSC short-term culture, healthy donors; conditions: Homo sapiens
Protocol: (§1) Considering the inhibitory capacity of UCM-13369 on AML cell lines (shown in Figure 3A), the therapeutic potential was assessed in primary CD34+ cells from AML patients. Two ex vivo models were used from AML patients and healthy donors: CD34+ liquid HSC (hematopoietic stem cell) culture as a short-term model and CFU-E (colony-forming unit–erythroid) as a midterm model.
(§2) The test compound was diluted in PBS. […]
(§3) Primary cells. 1x10^6/mL total mononuclear bone marrow cells (as source of CD34+ HSCs) of healthy donors and AML patients were used. They were cultured using Stem SpanTM supplement with pencillin/streptomycin (500 U/ml), TPO (10 µg/mL), SCF (10 µg/mL), FLT3 (10 µg/mL), IL-6 (10 µg/mL) and IL-3 (10 µg/mL). After 24 h fresh medium was added. After 72 h in maintenance cells were ready to start the assays. All cells wer e maintained at 37 °C in a humidified incubator in an atmosphere of 5% CO2. […]

[3] = system: MCF-7-derived mamospheres; assay: Formation of MCF-7-derived mamospheres (CSC tumorspheres)
Protocol: (§4) (BD Biosciences, Franklin Lakes, NJ, USA). All cells were maintained at 37 °C in a humidified incubator in an atmosphere of 5% CO2, and passaged every 2–3 days.
(§5) Additionally, they were cultured using RPMI media (Gibco/Life Technologies; Grand […]
(§6) Colonospheres, mamospheres and colony formation unit assays. 30.000 cells per well of MCF-7 cells (mamos pheres), HCT-116 cells (colonospheres) and CD34+ cells from patients (colony formation units) were seeded in serum free non- adherent medium or […]
(§7) MethoCult (Stem Cell). […]

[4] = system: primary HSCs from AML patients; assay: CD34+ liquid HSC short-term culture, AML patients; conditions: Homo sapiens
Protocol: as §1, §2, §3

[5] = system: HCT-116-derived colonospheres; assay: Formation of HCT-116-derived colonospheres (CSC tumorspheres); conditions: Homo sapiens, HCT-116; @5 µM (footnote d); read-out: Inhibition of tumorsphere formation (%) HCT-116
Protocol: as §4, §5, §6, §7

NPM1 = assay: Western blot of NPM1 in MOLM13 cells; conditions: MOLM13, 10 µM
Protocol: We next studied the impact of UCM-13369 in the genes and/or expression levels of NPM1 and NPM1 C+ pathway components (Figure 4A), including the positive regulation of c-Myc[34] and the negative regulation of FBXW7 and the pro-apoptotic CASP8.[35] […] The inhibition of NPM1 was also observed in MOLM13 cells expressing WT NPM1 (Figure S1B).
1. Figures S1 -S4and T ab les S1 , S2
Figure S1. (A) Dose-response curve of UCM-13369 in MCF-7, HCT-116 and IMR90 […]
(10 µM) in MOLM13 cells at 24 and 48 h. Densitometry values: reduction of 5% and […]
between NSG mice injected with OCI-AML3 cells, with and without UCM-13369 treatment (50 mg/kg). (D) IHC analysis of a poptotic cells in a representative kidney sample from OC I-AML 3 xenograft mice treat ed with DMSO (vehicle, top) vs . UCM-13369 treated mice (50 mg/kg, bottom) mice: H&E ( left) and cleav ed caspase- 3 (right). […]
Proteomic analysis. A supplementary table (Excel file) includes all the data of the proteomic analysis, showing all the proteins identified, not only those ablated in the treated population, but also those found with different expression levels in both populations under study, and even those that were not detected in the control population but were detected in the treated population. Follows the image of a Venn diagram showing the number of proteins detected in each of the pop ulations and the proteins that converg e […]

In the case of `COc1ccc(C2Cc3[nH]c4ccccc4c3C(CCNCC3CC3)C2N)cc1` (stereo not drawn) [4b, 4-{2-[(Cyclopropylmethyl)amino]ethyl}-2-(4-methoxyphenyl)-2,3,4,9-tetrahydro-1H-carbazol-3-amine], the “Toxicity in hRPT Epi Cells (in words)” value [1] is reported as “showed toxicity in kidney cells; also recorded: revealed toxicity”, the IC50 (MOLM13 (NPM1 WT)) is reported as 10.9 µM and the IC50 [2] is reported as 6.4 µM. For the same compound, the inhibition at 5 µM ([3]; Homo sapiens, MCF7, @5 µM (footnote d), read-out: Inhibition of tumorsphere formation (%) MCF-7) was 100%, the “Formation of tumorspheres (in words)” value ([3]; MCF-7 mamospheres and HCT-116 colonospheres, noncytotoxic concentration) was “completely inhibit” and the IC50 [4] was 1.88 µM. For the same compound, the inhibition at 5 µM [5] was 100%, the “Densitometry values (NPM1): reduction” value (NPM1; 24 h) was 5% and the “Densitometry values (NPM1): reduction” value (NPM1; 48 h) was 44%.
